The source of these data is paper PMC7466001 (Molecules, 2020).

On the set-up of data set [1]: method as in PMID 15488686. Particulars: aprepitant; cited from earlier work.
Another data set has as its system rNK1R. More on the design: method as in PMID 19426690. Particulars: cells expressing rNK1R; cited from earlier work.
The target of data set [2] is T1, rat neurokinin 1 receptor (Rattus norvegicus, UniProt P14600).
T1 construct: from tissue; host or cells: rat brain (membrane preparation / homogenate)
T1 sequence (P14600 whole entry): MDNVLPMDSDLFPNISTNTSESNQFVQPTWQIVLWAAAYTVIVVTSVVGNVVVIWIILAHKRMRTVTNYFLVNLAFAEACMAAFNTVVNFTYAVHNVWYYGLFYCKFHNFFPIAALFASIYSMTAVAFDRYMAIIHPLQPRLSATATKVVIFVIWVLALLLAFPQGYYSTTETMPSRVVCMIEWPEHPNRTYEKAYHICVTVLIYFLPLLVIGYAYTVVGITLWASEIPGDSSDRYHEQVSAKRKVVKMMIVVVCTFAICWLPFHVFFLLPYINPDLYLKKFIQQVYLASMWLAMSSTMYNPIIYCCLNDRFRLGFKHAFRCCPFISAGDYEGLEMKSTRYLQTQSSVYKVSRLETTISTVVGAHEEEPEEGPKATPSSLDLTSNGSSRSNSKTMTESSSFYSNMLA
The experiment in a line: Competitive radioligand binding assay using rat brain homogenates, [3H]-[Sar9,Met(O2)11]-Substance P. To be noted: for Ratio to APT: IC50 ratio to aprepitant, rat NK1R. The text has this:
An important consideration in the search of conjugate vectors for radionuclides is whether the functionalization of a high affinity ligand would not reduce the binding strength for a desired receptor. For the preliminary addressing of this issue in the case of our conjugates, we measured the affinity of compounds 5A–E (uncomplexed precursors) for the rat neurokinin-1 receptor. The human (hNK1R) and the rat (rNK1R) neurokinin 1 receptors differ in their sequences and pharmacology.
In brief, the membrane preparations obtained from rat brains were incubated at 25 °C for 60 min in the presence of a selective radioligand [^3H]-[Sar^9,Met(O2)^11]-Substance P obtained from PerkinElmer, (Waltham, MA, USA) and the increasing concentrations of the tested compounds (each concentration in duplicate). Non-specific binding was measured in the presence of 10 μM cold Substance P. The assay buffer was composed of 50 mM Tris-HCl (pH 7.4), 5 mM MnCl2, bovine serum albumin (BSA) (0.1 mg/mL), bacitracin (100 μg/mL), bestatin (30 μM), phenylmethylsulfonyl fluoride (30 μg/mL), and captopril (10 μM). The reaction total volume was 1 mL. With the incubation having been terminated, a rapid filtration through GF/B Whatman glass fiber strips was done with a M-24 Cell Harvester (Brandel, Gaithersburg, MD, USA). The filters were pre-soaked overnight with 0.5% polyethyleneimine so that the extent of non-specific binding could be minimized. After the filtration, the strips were dried, the filter discs were placed separately in 24-well plates, and a Betaplate Scint scintillation solution (PerkinElmer, Waltham, MA, USA) was added to each well. Radioactivity was measured with a MicroBeta LS scintillation counter, Trilux (PerkinElmer, Waltham, MA, USA). The data came from three independent experiments done in duplicate. The results are presented as IC50 with SEM.

For a further data set, the system named is hNK1R. More on the design: method as in PMID 19426690. To be noted: cells expressing hNK1R; cited from earlier work.
Data set [3] has as its target human neurokinin 1 receptor. More on the design: method as in PMID 9804700. Particulars: human receptor binding; cited from earlier work.
A short description of data set [4]: Lipophilicity study, distribution in n-octanol/PBS (pH 7.40). It counts as physicochemical. Particulars: n-octanol/PBS buffer pH 7.4. The text has this:
In the course of the lipophilicity study, each isolated DOTA radioconjugate (determined as fully stable in HS) was examined for distribution in the system of n-octanol and a phosphate-buffered saline (PBS) buffer (pH = 7.4) to estimate the lipophilicity of the radiocomplex. The lipophilicity of each radioconjugate (logD), defined as the logarithm of the distribution coefficient (D) is based on the ratio of the radioactivity of the organic phase to the radioactivity of the aqueous phase. The stability of the studied radioconjugate was verified simultaneously during the experiment through the HPLC analysis of the aqueous phase. LogD values of [^68Ga]Ga-5A–[^68Ga]Ga-5E and [^177Lu]Lu-5A–[^177Lu]Lu-5E are listed below in Table 3.
The lipophilicity values of the radioconjugates (logD), expressed as the logarithm of its D in the n-octanol/PBS (pH 7.40) system, mimicking the physiological conditions (Product Properties Test Guidelines of the Office of Prevention, Pesticides and Toxic Substances 830.7550, 1996), were determined right after the SPE method purification and ethanol evaporation processes. A solution of isolated selected radioconjugate in 500 µL of a 0.1 M PBS buffer at pH 7.40 and 500 µL of n-octanol was vigorously stirred and centrifuged (13,500 rpm for 5 min) to separate the immiscible phases. The radioactivities of the aqueous and organic layers were determined using a well-type NaI(Tl) detector. The distribution coefficient was calculated as the ratio of the radioactivity of the radioconjugate in the organic phase to that in the aqueous phase. Each measurement was performed in triplicate and averaged. Simultaneously, the aqueous phases were analyzed by HPLC to check whether the studied radioconjugate remained intact during the experiment.

Data set [5] is classed as physicochemical. The protocol:
All APT conjugates with DOTA, Bn-DOTA, and Bn-DOTAGA were radiolabeled with ^68Ga and ^177Lu, while APT conjugates with DTPA were only radiolabeled with ^68Ga. Synthesized radioconjugates were purified using the solid phase extraction (SPE) method before HPLC identification (Figure 2 and Figure 3) and further analyses.
Moreover, in the radiochromatogram of [^177Lu]Lu-DOTA-Bn-Et-APT ([^177Lu]Lu-6A) one can see a small additional signal (about 19.3 min) that is recognized as an early by-product of an interaction with solvent (EtOH) from the purification process. To verify the identity of all synthesized [^68Ga]Ga-radioconjugates in a non-carrier added scale, the non-radioactive stable gallium reference compounds (Ga-5A–Ga-9A and Ga-5A–Ga-5E) were synthesized and characterized by mass spectrometry. […]
The ^68Ga radiolabeling of the DOTA, Bn-DOTA, and Bn-DOTAGA conjugates of APT was performed according to the following procedure: 145 µL of a concentrated solution of [^68Ga]GaCl3 in 0.1 M HCl from the ^68Ge/^68Ga generator (4.9 ÷ 7.2 MBq) was added into the solution of 25 nmol of the selected conjugate in 200 µL of a 0.2 M acetate buffer (pH = 4.5) and heated for 5–10 min at 95 °C. […] The effectiveness of the purification was monitored by HPLC. […]

Setting [6] is: uncomplexed precursors, rat brain homogenates, three independent experiments in duplicate, read-out: IC50 ± SEM.

Where “and” joins values, the source holds several entries; their conditions need not be identical. Equal entries are not always repeated. Where two headings read alike, the source gives them in different places.

Regarding `C[C@@H](O[C@H]1OCCN(Cc2n[nH]c(=O)[nH]2)[C@H]1c1ccc(F)cc1)c1cc(C(F)(F)F)cc(C(F)(F)F)c1` [Aprepitant, aprepitant], the logD (as a rule, the decadic logarithm of the distribution of all forms, ionised or not, between an organic phase and buffer at a given pH) in data set [1] is recorded as 4.8. In addition, the results for the pKB in the data set on rNK1R and with hNK1R were 7.3 and 8.7, respectively. Also, the IC50 (usually the midpoint of a concentration-inhibition curve) in data set [2] (IC50, rat brain homogenates) is 128 nM; in data set [2] (IC50 ± SEM, uncomplexed precursors, rat brain homogenates, three independent experiments in duplicate) it was 130 ± 60 nM; in data set [3] it was 0.09 nM. In addition, the “Ratio to APT” value in data set [2] turned out to be 1.0.
Turning to APT-Ac-Et-DOTA [5E], the “Ratio to APT” value in data set [2] is 19.7. Moreover, the IC50 in data set [2] (setting [6]) was ~2500 nM and 2500 nM. Also, the logD in data set [4] (68Ga-radiolabeled conjugate) is −0.231 ± 0.015; in data set [4] (177Lu-radiolabeled conjugate), 0.500 ± 0.017.
For APT-Ac-HN-NH-DOTA [5D], the “Ratio to APT” value in data set [2] is recorded as 19.1. Also, the IC50 in data set [2] (setting [6]) is ~2500 nM and 2500 nM. In addition, the logD in data set [4] (68Ga-radiolabeled conjugate) is given as −1.012 ± 0.017; in data set [4] (177Lu-radiolabeled conjugate), −0.401 ± 0.015.
On to APT-Bu-DOTA [5C], for which the “Ratio to APT” value in data set [2] is given as 14.3. Also, the IC50 in data set [2] (setting [6]) was found to be 1800 ± 700 nM. Besides, the pH-dependent lipophilicity (logD) is given as 0.290 ± 0.018 in data set [4] (68Ga-radiolabeled conjugate) and 0.777 ± 0.021 in data set [4] (177Lu-radiolabeled conjugate).
Take APT-Et-DOTA [5A]: the “Ratio to APT” value in data set [2] came out at 48.2. Moreover, the IC50 in data set [2] (setting [6]) turned out to be 6200 ± 2600 nM. Further, the results for the logD in data set [4] (68Ga-radiolabeled conjugate) and in data set [4] (177Lu-radiolabeled conjugate) were 0.141 ± 0.019 and 0.708 ± 0.021, respectively.
Turning to [^68Ga]Ga-DTPA-(Et-APT)2 [[^68Ga]Ga-9A], the “stability of the radioconjugate after radiosynthesis” value in data set [5] is given as “immediately unstable”.
Turning to APT-Pr-DOTA [5B], in data set [2], the “Ratio to APT” value stood at 5.3. Besides, the IC50 in data set [2] (setting [6]) came out at 690 ± 70 nM. Moreover, the logD is on record as 0.058 ± 0.016 in data set [4] (68Ga-radiolabeled conjugate) and 0.654 ± 0.022 in data set [4] (177Lu-radiolabeled conjugate).
